Experimental data taken from ChEMBL document CHEMBL4052728, “Diaminopimelic acid (DAP) analogs bearing isoxazoline moiety as selective inhibitors against meso-diaminopimelate dehydrogenase (m-Ddh) from Porphyromonas gingivalis” (Bioorg Med Chem Lett, 2017).
Values after ≈ are worked out from the molar mass of the structure shown. Active and inactive are the calls of the source. The calls are words filed in the database; no cut-off is given here.

Tests used:
Staphylococcus aureus = experiment: Growth inhibition of Staphylococcus aureus N315 up to 3 mM after 24 hrs by broth microdilution method
Porphyromonas gingivalis [1] = experiment: Antibacterial activity against Porphyromonas gingivalis ATCC 33277 after 24 hrs by broth microdilution method; format: functional; conditions: ATCC 33277, 24 h
Porphyromonas gingivalis [2] = experiment: Antibacterial activity against Porphyromonas gingivalis W83 after 24 hrs by broth microdilution method; format: functional; conditions: W83, 24 h
[3] = target: T1, Meso-diaminopimelate D-dehydrogenase (Porphyromonas gingivalis (strain ATCC BAA-308 / W83), UniProt Q7MW40); experiment: Inhibition of Porphyromonas gingivalis m-Ddh expressed in Escherichia coli BL21 (DE3) pLysS at pH 10.5 using meso-diaminopimelate as substrate by spectrophotometric method
T1 sequence (Q7MW40 whole entry): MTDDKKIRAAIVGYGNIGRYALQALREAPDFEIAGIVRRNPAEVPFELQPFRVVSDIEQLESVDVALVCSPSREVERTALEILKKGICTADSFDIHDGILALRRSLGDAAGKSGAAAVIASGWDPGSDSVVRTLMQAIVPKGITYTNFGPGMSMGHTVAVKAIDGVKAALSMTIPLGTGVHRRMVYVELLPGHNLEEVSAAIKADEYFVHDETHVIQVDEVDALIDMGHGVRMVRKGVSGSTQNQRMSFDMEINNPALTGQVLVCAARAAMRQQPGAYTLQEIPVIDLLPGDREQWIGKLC

[4] = target: T1, Meso-diaminopimelate D-dehydrogenase; experiment: Inhibition of Porphyromonas gingivalis m-Ddh expressed in Escherichia coli BL21 (DE3) pLysS at pH 7.8 using meso-diaminopimelate as substrate by spectrophotometric method
Fusobacterium nucleatum = experiment: Growth inhibition of Fusobacterium nucleatum ATCC 25586 up to 3 mM after 24 hrs by broth microdilution method
[5] = target: T2, Meso-diaminopimelate D-dehydrogenase (Porphyromonas gingivalis (strain ATCC BAA-308 / W83)) (UniProt Q7MW40); experiment: Inhibition of Porphyromonas gingivalis m-Ddh expressed in Escherichia coli BL21 (DE3) pLysS up to 3 mM at pH 10.5 using meso-diaminopimelate as substrate by spectrophotometric method
T2 sequence (whole entry): T1 sequence (Q7MW40 whole entry)

[6] = target: T2, Meso-diaminopimelate D-dehydrogenase (Porphyromonas gingivalis (strain ATCC BAA-308 / W83)); experiment: Inhibition of Porphyromonas gingivalis m-Ddh expressed in Escherichia coli BL21 (DE3) pLysS up to 1 mM at pH 7.8 using meso-diaminopimelate as substrate by spectrophotometric method

MIC (Porphyromonas gingivalis [1]) [µM]	MIC (Porphyromonas gingivalis [2]) [µM]	IC50 [3] [µM]	IC50 [4] [µM]	inhibition [5]	inhibition [6]	Compound	growth inhibition (GI) (Staphylococcus aureus)	growth inhibition (GI) (Fusobacterium nucleatum)
1880 (≈ 379 µg/mL)	773 (≈ 156 µg/mL)	211	14.9			N[C@@H](C[C@H]1CC(C(=O)O)=NO1)C(=O)O	Non-Toxic	Non-Toxic
				inactive	inactive	N[C@@H](C[C@@H]1CC(C(=O)O)=NO1)C(=O)O		
